Experimental data published in US8088822B2, “Use of fenretinide or bioactive derivatives thereof and pharmaceutical compositions comprising the same” (priority 2008, dated 2012).

Legend:
[1] = system: ALL CD34+ cells; assay: Viability of ALL CD34+ cells; format: cell-based; conditions: Homo sapiens
Description: Fresh bone marrow (BM) cells were obtained from 38 patients with CML and 5 non-leukemic donors, 25 AML, 17 ALL, and 8 normal specimens with informed consent according to the Declaration of Helsinki. Approval was obtained from Institutional Review Board at the School of Medicine in Shanghai Jiao Tong University. BM mononuclear cells were isolated by Ficoll density gradient centrifugation (Shanghai Second Reagent Factory, Shanghai, China). CD34^+ Cell were selected using EasySep® Human CD34 Positive Selection kit (Stem Cell Technologies, Vancouver, BC, Canada) according to the manufacturer's instructions. The purity of CD34 cells ranged between 92 and 98% in all samples detennined by flow cytometry. The CD34^+ cells were cultured in a serum-free medium (StemPro 34; Gibco BRL, Gaithersburg, Md.) supplemented with growth factors (PeproTech, London, United Kingdom) (20). The growth factors consisted of GM-CSF (200 pg/mL), G-CSF (1 ng/mL); SCF (200 pg/mL); LIF (50 pg/mL), MIP-1α (200 pg/mL) and IL-6 (1 ng/mL).
Primitive AML and CML subpopulations (CD34^+ cells) were identified using CD34-PE in combination with CD38-APC, and followed by double-labeling with 7AAD and Annexin V antibodies for apoptosis assessment. […] Subsequently, the samples were incubated at room temperature for 15 minutes and analyzed by flow cytometry. […]

[2] = system: XBP-1; assay: RT-PCR of ER stress marker XBP-1 splicing in K562 cells; format: cell-based; conditions: whole time courses
Description: (§1) Real-time quantitative RT-PCR was preformed on ABI7900 thermocycler detection system using SYBR Green I (Applied Biosystems, Foster City, Calif.).
Despite of tremendous efforts (Oridate et al., 1997), mechanisms underlying fenretinide-induced apoptosis are far from clear. In particular, knowledge in terms of how oxidative stress is converted into downstream activities in fenretinide-treated cancer cells is limited. We performed a comprehensive analysis of fenretinide-induced apoptosis in leukemia cell lines through microarray technology integrated robust data mining tool, and techniques of molecular biology. Transcriptome analysis of fenretinide-induced apoptosis in NB4 cells highlighted numerous stress-responsive events at the temporal-spatial level, typifying a process of oxidative stress-mediated apoptosis. Among these prominent events were genes involved in transcriptional regulation, ribosome machinery, oxidative stress, endoplasmic reticulum stress/unfolded protein response (UPR), ubiquitin-proteasome system and apoptosis (FIG. 7A). […] Recently, data have shown that fenretinide may perturb cellular homeostasis and induced ER stress, which may eventually contribute to apoptosis. ER stress is cellular defense mechanism responding to various stimuli including oxidative stressors. […]

[3] = system: NRF2 and HSF1; assay: Western blot of NRF2 and HSF1 in nuclear extracts of NB4 cells; format: cell-based; conditions: 1 μM fenretinide, within 6 hours
Description: Transcriptome analysis of fenretinide-induced apoptosis in leukemia cell lines facilitated in-depth mining of biological information relevant to oxidative stress-mediated apoptosis, including the prediction of upstream transcription factors potentially involved in gene regulation. Of several dozens of transcriptional regulators predicted, stress-responsive transcription factors NRF2 and HSF1 are of particular interest for understanding how oxidative signaling is translated into downstream effects. NRF2 is known as a key regulator of intracellular redox balance, activating genes encoding antioxidative proteins under oxidative stress (Jaiswal, 2004; D'Autreaux and Toledano, 2007). Although HSF1 is commonly recognized as a heat-shock motivated transcription factor (Hayashida et al., 2006), it can also be activated by oxidative stress under certain circumstances (Ahn and Thiele, 2003). We therefore further investigated the temporal abundance and spatial localization of there two stress-responsive transcription factors during fenretinide-induced apoptosis in NB4 cells. […] The induction of NRF2 was extended beyond the 24 hour whereas HSF1 induction was terminated at this time point. […] Also, nuclear gathering of NRF2 was sustained beyond the 24 hour treatment whereas that of HSF1 was terminated. […]

[4] = system: oxidative and ER stress genes; assay: Real-time quantitative RT-PCR of oxidative and ER stress genes in CML CD34+ cells; format: cell-based, human; conditions: fenretinide-treated CML CD34+ cells
Description: as §1
Fenretinide preferentially targets more primitive leukemia stem and progenitor cells (Example 3 and Example 4), and mechanisms are involved in ROS-dependent apoptosis in a panel of leukemia cell lines. Additionally, the process of fenretinide-induced apoptosis is modulated by a large number of oxidative and ER stress genes (Example 5 and Example 6). It is of significant value to further evaluate whether fenretinide exerts similar mechanism on primitive leukemia stem and progenitor cells. Thus, we isolated CD34^+ cells from CML patients, which were subjected to real-time quantitative RT-PCR for oxidative and ER stress genes identified based on microarray analysis of fenretinide-treated K562 cells.

With CC1=C(/C=C/C(C)=C/C=C/C(C)=C/C(=O)Nc2ccc(O)cc2)C(C)(C)CCC1 [fenretinide, N-(4-hydroxyphenyl)retinamide] as the compound, how does the viability at 5 µM ([1]; 5 μM fenretinide) read?
Its viability at 5 µM is 58%.

What about the viability at 7.5 µM ([1]; 7.5 μM fenretinide) of the same compound?
Its viability at 7.5 µM is 20.9%.

What about the “splicing of the XBP-1 gene” value [2] of the same compound?
The value was “observable”.

What about the “protein levels of NRF2 and HSF1 in nuclear extracts” value [3] of the same compound?
The value was “markedly elevated”.

What about the “expression of genes involved in oxidative and ER stress” value [4] of the same compound?
The value was “highly up-regulated”.
